Results taken from paper PMC8151276, “An Integrated Approach toward NanoBRET Tracers for Analysis of GPCR Ligand Engagement” (Molecules, 2021).

Columns and labels:
Type in all cases: binding
[1] = biological target: T1, FSHR (Homo sapiens, UniProt P23945); experiment: NanoBRET screen HiBiT-FSHR in HEK293; settings: FSHR
T1 construct: purchased Promega (in-house HiBiT-GPCR construct library, NanoBRET)
T1 sequence (P23945 18-695): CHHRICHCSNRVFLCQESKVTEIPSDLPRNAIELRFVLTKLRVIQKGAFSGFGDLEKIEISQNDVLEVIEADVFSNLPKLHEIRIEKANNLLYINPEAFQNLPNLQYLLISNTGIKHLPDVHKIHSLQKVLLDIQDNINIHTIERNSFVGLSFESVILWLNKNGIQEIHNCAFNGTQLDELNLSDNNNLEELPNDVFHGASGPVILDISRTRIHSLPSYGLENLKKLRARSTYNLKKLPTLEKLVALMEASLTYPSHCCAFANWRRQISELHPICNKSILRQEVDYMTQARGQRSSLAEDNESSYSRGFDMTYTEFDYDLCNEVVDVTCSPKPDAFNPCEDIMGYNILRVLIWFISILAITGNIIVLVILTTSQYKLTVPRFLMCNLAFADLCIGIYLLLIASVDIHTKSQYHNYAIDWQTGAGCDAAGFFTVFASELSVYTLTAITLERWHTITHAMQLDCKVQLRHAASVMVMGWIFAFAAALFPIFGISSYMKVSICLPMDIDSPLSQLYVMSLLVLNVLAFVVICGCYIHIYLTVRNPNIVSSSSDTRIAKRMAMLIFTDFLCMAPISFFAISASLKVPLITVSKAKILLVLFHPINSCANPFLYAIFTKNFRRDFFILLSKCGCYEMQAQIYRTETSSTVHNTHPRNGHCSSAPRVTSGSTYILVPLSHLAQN
Procedure: (§1) Each tracer candidate was screened across the entire library of HiBiT-GPCR constructs using NanoBRET as the detection modality. As depicted in Figure 4A, the specificity of interactions was evaluated through decrease in BRET due to competitive displacement of a bound tracer by excess parental compound. Each tracer was analyzed for binding to each HiBiT-GPCR fusion in the absence and in the presence of competing parental compound. Briefly, HEK293 cells were transfected with HiBiT-GPCR constructs diluted into promoterless DNA to reduce expression and maximize translocation to the cell surface. Each tracer candidate was then screened at concentrations of 1 μM and 0.1 μM across cells expressing these fusions. Cells were treated for 1.5 h with tracer either alone or in the presence of 20 μM competing parental compound (i.e., control). BRET was measured upon addition of purified LgBiT and subsequent complementation with HiBiT genetically fused to a GPCR. The specificity of interactions was assessed through a decrease in BRET signal due to competitive displacement of the bound tracer. To further gauge the robustness of these interactions, the fold response over the control (i.e., BRETtracer/BRETcontrol) was calculated. We chose a 1.5-fold response, which translates to ≥7-fold signal over noise as the minimal threshold required to score an interaction as positive. […]. Below we highlight the screening results obtained for our exemplary fluorescent tracers based on Clozapine, Amitriptyline and AZD1283.
(§2) HiBiT-GPCR DNA constructs were diluted in 10 mM Tris pH 8 to a final concentration of 0.01 μg/μL, arrayed in 96-well plates and stored at −20 °C. For transfection, HEK293 cells were suspended in Opti-MEM (without phenol red) supplemented with 2% fetal bovine serum (Seradigm) and 100 units/mL penicillin–streptomycin (Gibco) at a final concentration of 220,000 cells/mL and dispensed into white 96-well plates at 90 μL/well. Subsequent transfections and screens were carried using an Agilent Bravo Automated Liquid Handling Platform. First, the 96-well HiBiT DNA arrays were diluted 25-fold in Opti-MEM (without serum or phenol red) to a final concentration of 0.0004 μg/μL and 20 μL of the diluted DNAs were transferred into new 96-well plates. Next, promoterless carrier DNA (1 μg/μL) was diluted 25-fold (0.04 μg/μL) and then dispensed into the diluted arrays at 20 μL/well. Following brief mixing, Viafect transfection reagent (Promega) diluted 16-fold into Opti-MEM was dispensed into the plates at 40 μL/well. After mixing by pipetting, plates were incubated for 10 min on the pipetting station deck. The DNA-transfection reagent complexes were then added to plates containing cells. To facilitate the screen, 10 μL of DNA-transfection reagent complexes were added in duplicates to the top 4 and bottom 4 rows, resulting in two identical 48-well arrays per plate. Plates with transfected cells were incubated for 18–20 h at 37 °C/5% CO2. A screen of each tracer across the entire library using two different concentrations requires duplicate plates of transfected cells. Depending on the number of tracers being screened, transfections can be scaled up using the same ratios. The next day, for each tracer, four 20× screening solutions in tracer dilution buffer (Promega) were prepared: two duplicates at final concentration of 20 μM and two duplicates at a final concentration of 2 μM. A competing unmodified compound was added to one of each duplicate at a final concentration of 400 μM. The four resulting solutions were diluted 4-fold in Opti-MEM without serum or phenol red to generate 5× solutions (5 µM and 0.5 µM tracer +/− 100 μM competing compound). To screen the library, a BioTek MultiFlo FX liquid dispenser was used to dispense 22.5 µL of tracer solution to the top 4 rows and 22.5 µL tracer + competing compound solution to the 4 bottom rows. Plates were briefly mixed on an orbital shaker and incubated for 1.5 h at room temperature. […]

[2] = biological target: T2, SSTR5 (Homo sapiens, UniProt P35346); experiment: NanoBRET screen HiBiT-SSTR5 in HEK293; settings: SSTR5
T2 construct: purchased Promega (in-house HiBiT-GPCR construct library, NanoBRET)
T2 sequence (P35346 whole entry): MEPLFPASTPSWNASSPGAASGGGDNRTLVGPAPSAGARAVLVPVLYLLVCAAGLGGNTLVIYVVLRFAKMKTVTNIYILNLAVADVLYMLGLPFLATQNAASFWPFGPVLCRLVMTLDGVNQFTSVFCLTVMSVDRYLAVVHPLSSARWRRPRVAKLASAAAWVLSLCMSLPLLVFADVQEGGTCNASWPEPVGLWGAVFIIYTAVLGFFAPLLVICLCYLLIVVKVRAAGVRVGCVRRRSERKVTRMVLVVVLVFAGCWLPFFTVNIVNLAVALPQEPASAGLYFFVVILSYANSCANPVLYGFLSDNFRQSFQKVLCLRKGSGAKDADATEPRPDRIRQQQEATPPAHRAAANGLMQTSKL
Procedure: as §1, §2

[3] = biological target: T3, LHCGR (Homo sapiens, UniProt P22888); experiment: NanoBRET screen HiBiT-LHCGR in HEK293; settings: LHCGR
T3 construct: purchased Promega (in-house HiBiT-GPCR construct library, NanoBRET)
T3 sequence (P22888 27-699): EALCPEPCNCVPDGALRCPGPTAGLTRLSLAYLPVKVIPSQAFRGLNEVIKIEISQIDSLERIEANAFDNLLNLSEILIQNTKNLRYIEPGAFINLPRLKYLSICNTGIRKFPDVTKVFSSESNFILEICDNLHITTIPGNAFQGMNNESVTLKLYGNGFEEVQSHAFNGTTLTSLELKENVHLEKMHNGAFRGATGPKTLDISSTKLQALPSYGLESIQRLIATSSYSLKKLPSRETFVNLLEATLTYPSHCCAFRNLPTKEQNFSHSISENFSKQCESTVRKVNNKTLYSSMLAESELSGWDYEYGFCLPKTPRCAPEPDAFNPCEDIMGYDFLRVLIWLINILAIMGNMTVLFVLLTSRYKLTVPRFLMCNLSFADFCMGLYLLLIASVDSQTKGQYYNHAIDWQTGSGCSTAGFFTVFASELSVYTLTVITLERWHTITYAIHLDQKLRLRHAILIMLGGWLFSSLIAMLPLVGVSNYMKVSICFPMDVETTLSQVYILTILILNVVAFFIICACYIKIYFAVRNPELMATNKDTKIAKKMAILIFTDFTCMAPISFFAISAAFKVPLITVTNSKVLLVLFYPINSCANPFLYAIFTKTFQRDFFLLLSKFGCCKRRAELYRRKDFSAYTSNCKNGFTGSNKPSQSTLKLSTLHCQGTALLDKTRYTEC
Procedure: as §1, §2

SMILES | NanoBRET Fold Response ([1]; 0.1μM tracer) | NanoBRET Fold Response ([1]; 1μM tracer) | NanoBRET Fold Response ([2]; 0.1μM tracer) | NanoBRET Fold Response ([2]; 1μM tracer) | NanoBRET Fold Response ([3]; 0.1μM tracer) | NanoBRET Fold Response ([3]; 1μM tracer) | NanoBRET Fold Response ([1]; tracer 0.1μM) | NanoBRET Fold Response ([1]; tracer 1μM) | NanoBRET Fold Response ([2]; tracer 0.1μM) | NanoBRET Fold Response ([2]; tracer 1μM) | NanoBRET Fold Response ([3]; tracer 0.1μM) | NanoBRET Fold Response ([3]; tracer 1μM)
CN1CCN(C2=Nc3cc(Cl)ccc3Nc3ccc(CNC(=O)CCOCCOCCOCCOCCNC(=O)CCc4ccc5n4[B-](F)(F)[N+]4=C(c6ccc[nH]6)C=CC4=C5)cc32)CC1 [Clozapine-b-2-NB590] | 1.01 | 1.05 | 1.03 | 1.00 | 1.06 | 0.99 | – | – | – | – | – | –
CN1CCN(C2=Nc3cc(Cl)ccc3N(CC(=O)NCCOCCOCCOCCOCCNC(=O)CCc3ccc4n3[B-](F)(F)[N+]3=C(c5ccc[nH]5)C=CC3=C4)c3ccccc32)CC1 [Clozapine-c-2-NB590] | 1.02 | 1.05 | 1.01 | 0.99 | 1.05 | 1.07 | – | – | – | – | – | –
O=C(CCOCCOCCOCCOCCNC(=O)CCc1ccc2n1[B-](F)(F)[N+]1=C(c3ccc[nH]3)C=CC1=C2)NCCCN1CCN(C2=Nc3ccccc3Oc3ccc(Cl)cc32)CC1 [Loxapine-a-2-NB590] | – | – | – | – | – | – | 0.98 | 1.16 | 1.10 | 1.15 | 0.97 | 1.15
COc1ccccc1N1CCN(CCCCN2C(=O)c3ccc(CNC(=O)CCOCCOCCOCCOCCNC(=O)CCc4ccc5n4[B-](F)(F)[N+]4=C(c6ccc[nH]6)C=CC4=C5)cc3C2=O)CC1 [NAN-190-2-NB590] | – | – | – | – | – | – | 0.97 | 0.97 | 0.98 | 1.04 | 0.98 | 1.04
COc1ccccc1N1CCN(CCCCN2C(=O)c3ccc(CNC(=O)CCOCCNC(=O)c4ccc(CNC(=O)CCc5ccc6n5[B-](F)(F)[N+]5=C(c7ccc[nH]7)C=CC5=C6)cc4)cc3C2=O)CC1 [NAN-190-3-NB590] | – | – | – | – | – | – | 0.88 | 1.12 | 1.02 | 1.03 | 0.98 | 1.08
O=C(CCc1ccc2n1[B-](F)(F)[N+]1=C(c3ccc[nH]3)C=CC1=C2)NCc1ccc(C(=O)NCCOCCC(=O)N[C@@H]2CC[C@@]3(O)[C@H]4Cc5ccc(O)c6c5[C@@]3(CCN4CC3CC3)[C@H]2O6)cc1 [Naltrexone-3-NB590] | – | – | – | – | – | – | 0.98 | 1.07 | 0.96 | 0.96 | 0.89 | 1.12
Cc1cc2c(s1)Nc1ccccc1N=C2N1CCN(CCCNC(=O)CCOCCOCCOCCOCCNC(=O)CCc2ccc3n2[B-](F)(F)[N+]2=C(c4ccc[nH]4)C=CC2=C3)CC1 [Olanzapine-a-2-NB590] | – | – | – | – | – | – | 1.10 | 0.99 | 1.01 | 1.02 | 1.00 | 1.01
